Patent publication US8574563B2 (Bristol-Myers Squibb Company, priority 2006, dated 2013)
Like-named read-outs stand apart in the source and are kept apart here.

Test system: HCV 1b-377-neo replicon cells
Assay: HCV replicon assay, HCV 1b-377-neo replicon cells (1b FRET)
Format: cell-based, Hepatitis C virus genotype 1b
Conditions: HCV 1b-377-neo replicon cells, HCV 1b genotype, read-out: EC50 range against HCV 1b (Table 2, Range)
Outline: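 FRET-based replicon assay in HCV 1b-377-neo cells, including a comparison line carrying the NS5A Y2065H mutation that confers resistance to a reference compound.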

| SMILES | EC50 (Hepatitis C virus) [µM] | EC50 [µM] |
| --- | --- | --- |
| CCOC(=O)N[C@@H](C)C(=O)N1CCC[C@H]1c1ncc(-c2ccc(-c3ccc(-c4cnc([C@@H]5CCCN5C(=O)[C@@H](c5ccccc5)N(CC)CC)[nH]4)cc3)cc2)[nH]1 [Example M31, ethyl ((1S)-2-((2S)-2-(5-(4′-(2-((2S)-1-((2R)-2-(diethylamino)-2-phenylacetyl)-2-pyrrolidinyl)-1H-imidazol-5-yl)-4-biphenylyl)-1H-imidazol-2-yl)-1-pyrrolidinyl)-1-methyl-2-oxoethyl)carbamate] | 0.001 to 0.099 | – |
| CCN(CC)[C@@H](C(=O)N1CCC[C@H]1c1ncc(-c2ccc(-c3ccc(-c4cnc([C@@H]5CCCN5C(=O)[C@@H]5CCC(=O)N5)[nH]4)cc3)cc2)[nH]1)c1ccccc1 [Example M32, (5S)-5-(((2S)-2-(5-(4′-(2-((2S)-1-((2R)-2-(diethylamino)-2-phenylacetyl)-2-pyrrolidinyl)-1H-imidazol-5-yl)-4-biphenylyl)-1H-imidazol-2-yl)-1-pyrrolidinyl)carbonyl)-2-pyrrolidinone] | 0.1 to 0.999 | – |
| CCN(CC)[C@@H](C(=O)N1CCC[C@H]1c1ncc(-c2ccc(-c3ccc(-c4cnc([C@@H]5CCCN5C(=O)C5(NC(=O)OC)CC5)[nH]4)cc3)cc2)[nH]1)c1ccccc1 [Example M33, methyl (1-(((2S)-2-(5-(4′-(2-((2S)-1-((2R)-2-(diethylamino)-2-phenylacetyl)-2-pyrrolidinyl)-1H-imidazol-5-yl)-4-biphenylyl)-1H-imidazol-2-yl)-1-pyrrolidinyl)carbonyl)cyclopropyl) carbamate] | – | 0.001 to 0.099 |
| CCN(CC)[C@@H](C(=O)N1CCC[C@H]1c1ncc(-c2ccc(-c3ccc(-c4cnc([C@@H]5CCCN5C(=O)C(C)(C)NC(=O)OC)[nH]4)cc3)cc2)[nH]1)c1ccccc1 [Example M34, methyl (2-((2S)-2-(5-(4′-(2-((2S)-1-((2R)-2-(diethylamino)-2-phenylacetyl)-2-pyrrolidinyl)-1H-imidazol-5-yl)-4-biphenylyl)-1H-imidazol-2-yl)-1-pyrrolidinyl)-1,1-dimethyl-2-oxoethyl)carbamate] | 0.001 to 0.099 | – |
| CCN(CC)[C@H](C)C(=O)N1CCC[C@H]1c1ncc(-c2ccc(-c3ccc(-c4cnc([C@@H]5CCCN5C(=O)[C@@H](c5ccccc5)N(CC)CC)[nH]4)cc3)cc2)[nH]1 [Example M35, (2R)-1-((2S)-2-(5-(4′-(2-((2S)-1-((2R)-2-(diethylamino)-2-phenylacetyl)-2-pyrrolidinyl)-1H-imidazol-5-yl)-4-biphenylyl)-1H-imidazol-2-yl)-1-pyrrolidinyl)-N,N-diethyl-1-oxo-2-propanamine] | 0.001 to 0.099 | – |
| CCN(CC)[C@@H](C)C(=O)N1CCC[C@H]1c1ncc(-c2ccc(-c3ccc(-c4cnc([C@@H]5CCCN5C(=O)[C@@H](c5ccccc5)N(CC)CC)[nH]4)cc3)cc2)[nH]1 [Example M36, (2S)-1-((2S)-2-(5-(4′-(2-((2S)-1-((2R)-2-(diethylamino)-2-phenylacetyl)-2-pyrrolidinyl)-1H-imidazol-5-yl)-4-biphenylyl)-1H-imidazol-2-yl)-1-pyrrolidinyl)-N,N-diethyl-1-oxo-2-propanamine] | 0.001 to 0.099 | – |
| CCN(CC)[C@@H](C(=O)N1CCC[C@H]1c1ncc(-c2ccc(-c3ccc(-c4cnc([C@@H]5CCCN5C(=O)c5ncco5)[nH]4)cc3)cc2)[nH]1)c1ccccc1 [Example M37, (1R)-N,N-diethyl-2-((2S)-2-(5-(4′-(2-((2S)-1-(1,3-oxazol-2-ylcarbonyl)-2-pyrrolidinyl)-1H-imidazol-5-yl)-4-biphenylyl)-1H-imidazol-2-yl)-1-pyrrolidinyl)-2-oxo-1-phenylethanamine] | 0.001 to 0.099 | – |
| CCN(CC)[C@@H](C(=O)N1CCC[C@H]1c1ncc(-c2ccc(-c3ccc(-c4cnc([C@@H]5CCCN5C(=O)c5cccnc5)[nH]4)cc3)cc2)[nH]1)c1ccccc1 [Example M38, (1R)-N,N-diethyl-2-oxo-1-phenyl-2-((2S)-2-(5-(4′-(2-((2S)-1-(3-pyridinylcarbonyl)-2-pyrrolidinyl)-1H-imidazol-5-yl)-4-biphenylyl)-1H-imidazol-2-yl)-1-pyrrolidinyl)ethanamine] | 0.001 to 0.099 | – |
| CCN(CC)[C@@H](C(=O)N1CCC[C@H]1c1ncc(-c2ccc(-c3ccc(-c4cnc([C@@H]5CCCN5C(=O)[C@@H](C)O)[nH]4)cc3)cc2)[nH]1)c1ccccc1 [Example M39, (2R)-1-((2S)-2-(5-(4′-(2-((2S)-1-((2R)-2-(diethylamino)-2-phenylacetyl)-2-pyrrolidinyl)-1H-imidazol-5-yl)-4-biphenylyl)-1H-imidazol-2-yl)-1-pyrrolidinyl)-1-oxo-2-propanol] | 0.001 to 0.099 | – |
| CCN(CC)[C@@H](C(=O)N1CCC[C@H]1c1ncc(-c2ccc(-c3ccc(-c4cnc([C@@H]5CCCN5C(=O)[C@H](C)O)[nH]4)cc3)cc2)[nH]1)c1ccccc1 [Example M40, (2S)-1-((2S)-2-(5-(4′-(2-((2S)-1-((2R)-2-(diethylamino)-2-phenylacetyl)-2-pyrrolidinyl)-1H-imidazol-5-yl)-4-biphenylyl)-1H-imidazol-2-yl)-1-pyrrolidinyl)-1-oxo-2-propanol] | 0.001 to 0.099 | – |
| CCN(CC)[C@@H](C(=O)N1CCC[C@H]1c1ncc(-c2ccc(-c3ccc(-c4cnc([C@@H]5CCCN5C(=O)C5(NC(=O)OC)CCC5)[nH]4)cc3)cc2)[nH]1)c1ccccc1 [Example M41, methyl (1-(((2S)-2-(5-(4′-(2-((2S)-1-((2R)-2-(diethylamino)-2-phenylacetyl)-2-pyrrolidinyl)-1H-imidazol-5-yl)-4-biphenylyl)-1H-imidazol-2-yl)-1-pyrrolidinyl)carbonyl)cyclobutyl) carbamate] | – | 0.001 to 0.099 |
| CCN(CC)[C@@H](C(=O)N1CCC[C@H]1c1ncc(-c2ccc(-c3ccc(-c4cnc([C@@H]5CCCN5C(=O)C5(NC(=O)OC)CCCC5)[nH]4)cc3)cc2)[nH]1)c1ccccc1 [Example M42, methyl (1-(((2S)-2-(5-(4′-(2-((2S)-1-((2R)-2-(diethylamino)-2-phenylacetyl)-2-pyrrolidinyl)-1H-imidazol-5-yl)-4-biphenylyl)-1H-imidazol-2-yl)-1-pyrrolidinyl)carbonyl)cyclopentyl) carbamate] | – | 0.001 to 0.099 |
| CCCN(CCC)[C@@H](C)C(=O)N1CCC[C@H]1c1ncc(-c2ccc(-c3ccc(-c4cnc([C@@H]5CCCN5C(=O)[C@@H](c5ccccc5)N(CC)CC)[nH]4)cc3)cc2)[nH]1 [Example M43, N-((1S)-2-((2S)-2-(5-(4′-(2-((2S)-1-((2R)-2-(diethylamino)-2-phenylacetyl)-2-pyrrolidinyl)-1H-imidazol-5-yl)-4-biphenylyl)-1H-imidazol-2-yl)-1-pyrrolidinyl)-1-methyl-2-oxoethyl)-N-propyl-1-propanamine] | 0.001 to 0.099 | – |
| CCN(CC)[C@@H](C(=O)N1CCC[C@H]1c1ncc(-c2ccc(-c3ccc(-c4cnc([C@@H]5CCCN5C(=O)[C@@H]5COC(=O)N5)[nH]4)cc3)cc2)[nH]1)c1ccccc1 [Example M44, (4S)-4-(((2S)-2-(5-(4′-(2-((2S)-1-((2R)-2-(diethylamino)-2-phenylacetyl)-2-pyrrolidinyl)-1H-imidazol-5-yl)-4-biphenylyl)-1H-imidazol-2-yl)-1-pyrrolidinyl)carbonyl)-1,3-oxazolidin-2-one] | 0.1 to 0.999 | – |
| CCN(CC)[C@@H](C(=O)N1CCC[C@H]1c1ncc(-c2ccc(-c3ccc(-c4cnc([C@@H]5CCCN5C(=O)[C@@H](C(C)C)N(CC)CC)[nH]4)cc3)cc2)[nH]1)c1ccccc1 [Example M45, (2R)-1-((2S)-2-(5-(4′-(2-((2S)-1-((2R)-2-(diethylamino)-2-phenylacetyl)-2-pyrrolidinyl)-1H-imidazol-5-yl)-4-biphenylyl)-1H-imidazol-2-yl)-1-pyrrolidinyl)-N,N-diethyl-3-methyl-1-oxo-2-butanamine] | 0.001 to 0.099 | – |
| CCCN(CCC)[C@H](C)C(=O)N1CCC[C@H]1c1ncc(-c2ccc(-c3ccc(-c4cnc([C@@H]5CCCN5C(=O)[C@@H](c5ccccc5)N(CC)CC)[nH]4)cc3)cc2)[nH]1 [Example M46, N-((1R)-2-((2S)-2-(5-(4′-(2-((2S)-1-((2R)-2-(diethylamino)-2-phenylacetyl)-2-pyrrolidinyl)-1H-imidazol-5-yl)-4-biphenylyl)-1H-imidazol-2-yl)-1-pyrrolidinyl)-1-methyl-2-oxoethyl)-N-propyl-1-propanamine] | 0.001 to 0.099 | – |
| CCN(CC)[C@@H](C(=O)N1CCC[C@H]1c1ncc(-c2ccc(-c3ccc(-c4cnc([C@@H]5CCCN5C(=O)[C@H](NC(=O)OC)c5ccccc5)[nH]4)cc3)cc2)[nH]1)c1ccccc1 [Example M47, methyl ((1R)-2-((2S)-2-(5-(4′-(2-((2S)-1-((2R)-2-(diethylamino)-2-phenylacetyl)-2-pyrrolidinyl)-1H-imidazol-5-yl)-4-biphenylyl)-1H-imidazol-2-yl)-1-pyrrolidinyl)-2-oxo-1-phenylethyl)carbamate] | 0.001 to 0.099 | – |
| CCN(CC)[C@@H](C(=O)N1CCC[C@H]1c1ncc(-c2ccc(-c3ccc(-c4cnc([C@@H]5CCCN5C(=O)[C@@H](c5ccccc5)N5CCOCC5)[nH]4)cc3)cc2)[nH]1)c1ccccc1 [Example M48, (1R)-N,N-diethyl-2-((2S)-2-(5-(4′-(2-((2S)-1-((2R)-2-(4-morpholinyl)-2-phenylacetyl)-2-pyrrolidinyl)-1H-imidazol-5-yl)-4-biphenylyl)-1H-imidazol-2-yl)-1-pyrrolidinyl)-2-oxo-1-phenylethanamine] | 0.001 to 0.099 | – |
| CCN(CC)[C@@H](C(=O)N1CCC[C@H]1c1ncc(-c2ccc(-c3ccc(-c4cnc([C@@H]5CCCN5C(=O)[C@H](C)NC(=O)OC)[nH]4)cc3)cc2)[nH]1)c1ccccc1 [Example M49, methyl ((1S)-2-((2S)-2-(5-(4′-(2-((2S)-1-((2R)-2-(diethylamino)-2-phenylacetyl)-2-pyrrolidinyl)-1H-imidazol-5-yl)-4-biphenylyl)-1H-imidazol-2-yl)-1-pyrrolidinyl)-1-methyl-2-oxoethyl)carbamate] | 0.001 to 0.099 | – |
